Experimental data from US20100297056A1, “COMPOSITION BASED ON PERHYDROSQUALENE AND COLLAGEN-POLYVINYLPYRROLIDONE FOR FILLING MINOR CUTANEOUS DEPRESSIONS” (ASPID, S.A. DE C.V., priority 2007, published 2010).

Assays:
[1] = in vivo; cited from earlier work
[2] = rats, oral, three-month period; cited from earlier work
[3] = dogs, cited from earlier work
[4] = tested on: rat skin; assay: murine model of intradermal administration of implant materials; format: in vivo, rats; conditions: sensorial analog scale, papule palpation
Description: Because of the above, a murine model essay of intradermal administration was designed, wherein several implant materials were evaluated such as natural and synthetic jojoba oil, peanut oil and perhydrosqualene, mixed with collagen-polyvinylpyrrolidone, various emulsifiers and a gelling agent (dibutyl-lauroyl glutamide). The administration of the implant materials generated papules, formed by the deposition of the material in the reticular dermis of the back of the rats. The papules were evaluated with regard to the tolerance of the tissue to the implant through a visual analog scale during a period of about 30 days, with their intervals; moreover, the eventual occurrence of skin changes such as irritation, ischemia formation and in some cases tissue necrosis related to the implanted material were reported, as well as the durability of the bioimplant that was quantified through a sensorial analog scale derived from the papule palpation.
In the same way, histological rat skin changes were evaluated through biopsies obtained from the implant infiltrated site, said biopsies were collected at different times in order to determine whether changes occurred in the internal skin structure, as well as to observe the implant site, the inflammatory infiltrate, the ratio between type I and type III collagens, as well as the possible formation of granulomes.

[5] = excreted through natural routes; cited from earlier work
[6] = humans; cited from earlier work
[7] = mice; cited from earlier work

Q: Which “mean lethal dose DL50” value [1] does the source give for `CC(C)CCCC(C)CCCC(C)CCCCC(C)CCCC(C)CCCC(C)C` (stereo not drawn) [perhydrosqualene, 2,6,10,15,19,23-hexamethyltetracosane] here?
A: > 20 mL/kg

Q: What about the signs of toxicity [2] of the same molecule?
A: did not show signs of toxicity

Q: And the blood level ([3]; 1200 mg/kg during 14 days)?
A: 30 ppm

Q: And the perhydrosqualene excretion ([3]; 1200 mg/kg during 14 days)?
A: 65-90 % per day

Q: What about the “perhydrosqualene in blood on day 56” value ([3]; day 56 after the first dose) of the same molecule?
A: not detectable

Q: What about the “durability of the bioimplant in the tissue” value [4] of the same molecule?
A: constant even 15 days after its administration

Q: What about the metabolism [5] of the same molecule?
A: non-metabolizable

Q: And the “cutaneous and ocular irritation” value [6]?
A: absence of cutaneous and ocular irritation

Q: And the “irritation after subcutaneous injections” value [7]?
A: absence of cutaneous and ocular irritation
